Reference: patent US10905764B2, “Hydrated food” (Taiyokagaku Co., Ltd., priority 2005, dated 2021)

Key:
[1] = Dissolution / water solubility; details: in the hydrated food
mice = type: in vivo; details: oral administration of theanine by 5 g/kg
Description: Theanine used in the invention has a high security. […] Furthermore, theanine is known as a principal component of deliciousness of tea and used as a food additive for use as gustatory. An amount of theanine to be added is not limited under the Food Sanitation Law.

In the case of CCNC(=O)CC[C@H](N)C(=O)O [theanine, L-theanine], the “upper limit of dissolution” value [1] was 250 mg/mL and the “mortality in acute toxicity test” value (mice) was “no mice died”.
